The subject of data set [1] is NCI-H1993 human non-small cell lung cancer xenografts. Kind of data set: Antitumor activity in NCI-H1993 human non-small cell lung cancer xenografts (tumor volume). The note with it: single treatment: E7389 1.5 mg/kg i.v. Q7Dx2; E7080 10 mg/kg p.o. Q1Dx12. It is filed as in vivo, mice. On the procedure:
(§1) Human non-small cell lung cancer cell lines, NCI-H1993 and PC-9, were maintained in monolayer cultures in RPMI-1640 medium supplemented with 10% Fetal Bovine Serum and 1% of Penicillin-Streptomycin-Amphotericin at 37° C. in a 5% CO2 humidified incubator. On the day of inoculation, cells were harvested by Trypsinization, washed, and mixed 1:1 (v/v) with medium/GelTrex. NCI-H1993 and PC-9 human non-small cell lung cancer cells (10×10^6 cells per animal) were inoculated subcutaneously near the right axillary area using a 26-gauge needle in a 0.1 mL volume in female immuncompromised mice (Mouse: BALB/c Slc nu/nu; Japan SLC, Inc.).
(§2) The experiment consisted of a no inject control group, a single agent drug-treated group for either E7389 (1.5 mg/kg) or E7080 (10 mg/kg), and combination drug-treated groups. Each group was composed of five mice. […] Following randomization, drug treatment was initiated. E7389 (1.5 mg/kg) was intravenously administered weekly for two weeks (Q7Dx2). E7080 was orally administered daily for 12 days (Q1Dx12). Both drugs were administered at a volume of 0.1 mL per 10 g body weight.
(§3) Tumor volume was determined by caliper measurements (mm) using the formula Tumor volume (mm^3)=length (mm)×width^2(mm^2)×½
(§4) The mean±SD for tumor volume for each experimental group was calculated. […]
On the technique in general: Xenograft models place foreign cells or tissue in a host animal.

The nature of data set [2]: in vivo. The note with it: athymic, mouse.
The subject of data set [3] is PC-9 human non-small cell lung cancer xenografts. Kind of data set: Antitumor activity in PC-9 human non-small cell lung cancer xenografts (tumor volume). The note with it: single treatment: E7389 1.5 mg/kg i.v. Q7Dx2; E7080 10 mg/kg p.o. Q1Dx12. Format: in vivo, mice. Here is the method: as §1, §2, §3, §4
For data set [4], the system named is A375 human malignant melanoma xenografts. Kind of data set: Antitumor activity in A375 human malignant melanoma xenograft model (tumor volume). Format: in vivo. Particulars: single agent at highest dose: E7389 3.0 mg/kg i.v. Q7Dx2; E7080 15 mg/kg p.o. Q1Dx14; female athymic mice. The source says: Following randomization, drug treatment was initiated.
A value of P<0.05 was considered statistically significant.

The nature of data set [5]: Relative body weight change in A375 xenograft study. Format: in vivo, mice. The note with it: E7389 alone at 3.0 mg/kg i.v. Q7Dx2.
Procedure: The experiment consisted of a vehicle-treated control group, a single agent drug-treated group for either E7389 or E7080, and three combination drug-treated groups (summarized in Table 1). Each group was composed of six mice for a total of 48 mice on the first day of treatment. […] Following randomization, drug treatment was initiated. E7080 was orally administered daily for 14 days (Q1Dx14) at a volume of 0.1 mL per 10 g body weight. E7389 (0.05 mg/kg) was intravenously administered daily for 14 days. In the combination group, E7389 was administered three hours after oral administration of E7080. […]
The general health of the mice was monitored daily. Tumor volume was determined by caliper measurements (mm) using the formula (1×w^2)/2=mm^3, where 1 and w refer to the larger and smaller perpendicular dimensions collected at each measurement. Tumor dimensions and body weight were recorded twice per week starting the first day of treatment. Relative body weight was calculated as follows: Relative body weight=(body weight on day of measurement)/(body weight on first day of treatment).
The data generated consisted of group mean body weights at each measurement and group mean tumor volumes at each measurement. The mean±SEM for tumor volume and relative body weight for each experimental group was calculated.

Entries after “also recorded” stand apart in the source; their conditions may differ.

`COc1cc2nccc(Oc3ccc(NC(=O)NC4CC4)c(Cl)c3)c2cc1C(N)=O.CS(=O)(=O)O` [E7080, 4-[3-chloro-4-[[(cyclopropylamino)carbonyl]amino]phenoxy]-7-methoxy-6-quinolinecarboxamide, methanesulfonate (1:1)]: the “antitumor activity (tumor volume)” value in data set [1] and in data set [3] was “significant antitumor activity” throughout. In data set [2], this compound came in with an MTD at 14 days of 15 mg/kg. Besides, the “antitumor effect (tumor volume)” value in data set [4] is given as “tumor growth delay, but not tumor regression”.

On to `C=C1C[C@@H]2CC[C@@]34C[C@H]5O[C@@H]6[C@@H](O3)[C@H]3O[C@H](CC[C@@H]3O[C@H]6[C@H]5O4)CC(=O)C[C@@H]3[C@@H](OC)[C@@H](C[C@H](O)CN)O[C@H]3C[C@H]3O[C@@H](CC[C@@H]1O2)C[C@@H](C)C3=C.CS(=O)(=O)O` [E7389, (2R,3R,3aS,7R,8aS,9S,I0aR,11S,12R,13aR,13bS,15S,18S,21S,24S,26R,28R,29aS)-2-[(2S)-3-amino-2-hydroxypropyl]hexacosahydro-3-methoxy-26-methyl-20,27-bis(methylene)-11,15:18,21:24,28-triepoxy-7,9-ethano-12,15-methano-9H,15H-furo[3,2-i]furo[2′,3′:5,6]pyrano[4,3-b][1,4]dioxacyclopentacosin-5(4H)-one, methanesulfonate (salt)], for which the “antitumor activity (tumor volume)” value in data set [1] and in data set [3] was “significant antitumor activity” in each case. In data set [2] (other: E7389 i.v., E7080 p.o.), this compound came in with an MTD at 14 days of 3 mg/kg. In addition, in data set [5], the “relative body weight change” value was “Body weight loss was observed”. Moreover, the “antitumor effect (tumor volume)” value in data set [4] is recorded as “tumor growth delay, but not tumor regression; also recorded: strong antitumor activity”.

These data come from US9549922B2, “Use of eribulin and lenvatinib as combination therapy for treatment of cancer” (priority 2013, dated 2017).
